{"source": "PubChem BioAssay AID1963832", "about": "(Molecular Pharmacology Branch, DTP, NCI, 2024);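 note: spheroids exposed to compounds for 7 days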", "tested_on": "885724-159-R-J1-PDC complex spheroid viability", "assay": "Anticancer human tumor 885724-159-R-J1-PDC patient-derived pancreatic adenocarcinoma cell line growth inhibition [POLQ]", "conditions": "for IC50: curve of first compound; for viability, T/C: stronger effect = lower value", "method_in_brief": "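PDC + HUVEC + MSC complex spheroids; POLQ inhibitors ± partner drugs; top conc. at/near clinical Cmax, else 10 microM (SN-38 1 microM), half-log dilutions; 37 degrees C, 5% CO2.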", "key": {"[1]": {"conditions": "second compound 0.0316 µM, first compound 0.0316 µM"}, "[2]": {"conditions": "second compound 0.0316 µM, first compound 0.1 µM"}, "[3]": {"conditions": "second compound 0.0316 µM, first compound 0.316 µM"}, "[4]": {"conditions": "second compound 0.0316 µM, first compound 1 µM"}, "[5]": {"conditions": "second compound 0.0316 µM, first compound 3.16 µM"}, "[6]": {"conditions": "second compound 0.0316 µM, first compound 10 µM"}, "[7]": {"conditions": "second compound 0.1 µM, first compound 0.0316 µM"}, "[8]": {"conditions": "second compound 0.1 µM, first compound 0.1 µM"}, "[9]": {"conditions": "second compound 0.1 µM, first compound 0.316 µM"}, "[10]": {"conditions": "second compound 0.1 µM, first compound 1 µM"}, "[11]": {"conditions": "second compound 0.1 µM, first compound 3.16 µM"}, "[12]": {"conditions": "second compound 0.1 µM, first compound 10 µM"}, "[13]": {"conditions": "second compound 0.316 µM, first compound 0.0316 µM"}, "[14]": {"conditions": "second compound 0.316 µM, first compound 0.1 µM"}, "[15]": {"conditions": "second compound 0.316 µM, first compound 0.316 µM"}, "[16]": {"conditions": "second compound 0.316 µM, first compound 1 µM"}, "[17]": {"conditions": "second compound 0.316 µM, first compound 3.16 µM"}, "[18]": {"conditions": "second compound 0.316 µM, first compound 10 µM"}, "[19]": {"conditions": "second compound 1 µM, first compound 0.0316 µM"}, "[20]": {"conditions": "second compound 1 µM, first compound 0.1 µM"}, "[21]": {"conditions": "second compound 1 µM, first compound 0.316 µM"}, "[22]": {"conditions": "second compound 1 µM, first compound 1 µM"}, "[23]": {"conditions": "second compound 1 µM, first compound 3.16 µM"}, "[24]": {"conditions": "second compound 1 µM, first compound 10 µM"}, "[25]": {"conditions": "second compound 3.16 µM, first compound 0.0316 µM"}, "[26]": {"conditions": "second compound 3.16 µM, first compound 0.1 µM"}, "[27]": {"conditions": "second compound 3.16 µM, first compound 0.316 µM"}, "[28]": {"conditions": "second compound 3.16 µM, first compound 1 µM"}, "[29]": {"conditions": "second compound 3.16 µM, first compound 3.16 µM"}, "[30]": {"conditions": "second compound 3.16 µM, first compound 10 µM"}, "[31]": {"conditions": "second compound 10 µM, first compound 0.0316 µM"}, "[32]": {"conditions": "second compound 10 µM, first compound 0.1 µM"}, "[33]": {"conditions": "second compound 10 µM, first compound 0.316 µM"}, "[34]": {"conditions": "second compound 10 µM, first compound 1 µM"}, "[35]": {"conditions": "second compound 10 µM, first compound 3.16 µM"}, "[36]": {"conditions": "second compound 10 µM, first compound 10 µM"}}}
{"smiles": "CC1COCCN1c1cc(C2(S(C)(=N)=O)CC2)nc(-c2ccnc3[nH]ccc23)n1", "note": "(centres undefined) + Cc1cccc(N(C)C(=O)C2C(O)CCN2c2nc(C)cc(C(F)(F)F)c2C#N)c1", "values": [{"measurement": "IC50", "setting": "second compound 0.0316 µM", "result": "> 10", "unit": "µM"}, {"measurement": "IC50", "setting": "second compound 0.1 µM", "result": "> 10", "unit": "µM"}, {"measurement": "IC50", "setting": "second compound 0.316 µM", "result": 9.04, "unit": "µM"}, {"measurement": "IC50", "setting": "second compound 1 µM", "result": 5.33, "unit": "µM"}, {"measurement": "IC50", "setting": "second compound 3.16 µM", "result": "> 10", "unit": "µM"}, {"measurement": "IC50", "setting": "second compound 10 µM", "result": "> 10", "unit": "µM"}, {"measurement": "viability, T/C", "setting": "[1]", "result": 105, "unit": "%"}, {"measurement": "viability, T/C", "setting": "[2]", "result": 97.3, "unit": "%"}, {"measurement": "viability, T/C", "setting": "[3]", "result": 89, "unit": "%"}, {"measurement": "viability, T/C", "setting": "[4]", "result": 72, "unit": "%"}, {"measurement": "viability, T/C", "setting": "[5]", "result": 58, "unit": "%"}, {"measurement": "viability, T/C", "setting": "[6]", "result": 51.7, "unit": "%"}, {"measurement": "viability, T/C", "setting": "[7]", "result": 103, "unit": "%"}, {"measurement": "viability, T/C", "setting": "[8]", "result": 94.1, "unit": "%"}, {"measurement": "viability, T/C", "setting": "[9]", "result": 97.9, "unit": "%"}, {"measurement": "viability, T/C", "setting": "[10]", "result": 65.4, "unit": "%"}, {"measurement": "viability, T/C", "setting": "[11]", "result": 55.2, "unit": "%"}, {"measurement": "viability, T/C", "setting": "[12]", "result": 53.8, "unit": "%"}, {"measurement": "viability, T/C", "setting": "[13]", "result": 108, "unit": "%"}, {"measurement": "viability, T/C", "setting": "[14]", "result": 102, "unit": "%"}, {"measurement": "viability, T/C", "setting": "[15]", "result": 92.5, "unit": "%"}, {"measurement": "viability, T/C", "setting": "[16]", "result": 72.9, "unit": "%"}, {"measurement": "viability, T/C", "setting": "[17]", "result": 55.9, "unit": "%"}, {"measurement": "viability, T/C", "setting": "[18]", "result": 49.7, "unit": "%"}, {"measurement": "viability, T/C", "setting": "[19]", "result": 109, "unit": "%"}, {"measurement": "viability, T/C", "setting": "[20]", "result": 93.6, "unit": "%"}, {"measurement": "viability, T/C", "setting": "[21]", "result": 97, "unit": "%"}, {"measurement": "viability, T/C", "setting": "[22]", "result": 71.8, "unit": "%"}, {"measurement": "viability, T/C", "setting": "[23]", "result": 52.3, "unit": "%"}, {"measurement": "viability, T/C", "setting": "[24]", "result": 47.2, "unit": "%"}, {"measurement": "viability, T/C", "setting": "[25]", "result": 98.5, "unit": "%"}, {"measurement": "viability, T/C", "setting": "[26]", "result": 95.6, "unit": "%"}, {"measurement": "viability, T/C", "setting": "[27]", "result": 92.8, "unit": "%"}, {"measurement": "viability, T/C", "setting": "[28]", "result": 73.8, "unit": "%"}, {"measurement": "viability, T/C", "setting": "[29]", "result": 51.7, "unit": "%"}, {"measurement": "viability, T/C", "setting": "[30]", "result": 51.3, "unit": "%"}, {"measurement": "viability, T/C", "setting": "[31]", "result": 92.2, "unit": "%"}, {"measurement": "viability, T/C", "setting": "[32]", "result": 97.2, "unit": "%"}, {"measurement": "viability, T/C", "setting": "[33]", "result": 91.5, "unit": "%"}, {"measurement": "viability, T/C", "setting": "[34]", "result": 68.2, "unit": "%"}, {"measurement": "viability, T/C", "setting": "[35]", "result": 56.4, "unit": "%"}, {"measurement": "viability, T/C", "setting": "[36]", "result": 50.4, "unit": "%"}]}
{"smiles": "CNCc1ccc(-c2[nH]c3cc(F)cc4c3c2CCNC4=O)cc1", "note": "+ COC1C(OC(N)=O)C(O)C(Oc2ccc3c(O)c(NC(=O)c4ccc(O)c(CC=C(C)C)c4)c(=O)oc3c2C)OC1(C)C", "values": [{"measurement": "IC50", "setting": "second compound 0.0316 µM", "result": "> 10", "unit": "µM"}, {"measurement": "IC50", "setting": "second compound 0.1 µM", "result": "> 10", "unit": "µM"}, {"measurement": "IC50", "setting": "second compound 0.316 µM", "result": "> 10", "unit": "µM"}, {"measurement": "IC50", "setting": "second compound 1 µM", "result": "> 10", "unit": "µM"}, {"measurement": "IC50", "setting": "second compound 3.16 µM", "result": "> 10", "unit": "µM"}, {"measurement": "IC50", "setting": "second compound 10 µM", "result": "> 10", "unit": "µM"}, {"measurement": "viability, T/C", "setting": "[1]", "result": 95.9, "unit": "%"}, {"measurement": "viability, T/C", "setting": "[2]", "result": 96.7, "unit": "%"}, {"measurement": "viability, T/C", "setting": "[3]", "result": 95.4, "unit": "%"}, {"measurement": "viability, T/C", "setting": "[4]", "result": 94.7, "unit": "%"}, {"measurement": "viability, T/C", "setting": "[5]", "result": 93.2, "unit": "%"}, {"measurement": "viability, T/C", "setting": "[6]", "result": 75.9, "unit": "%"}, {"measurement": "viability, T/C", "setting": "[7]", "result": 96.4, "unit": "%"}, {"measurement": "viability, T/C", "setting": "[8]", "result": 96.5, "unit": "%"}, {"measurement": "viability, T/C", "setting": "[9]", "result": 93.5, "unit": "%"}, {"measurement": "viability, T/C", "setting": "[10]", "result": 108, "unit": "%"}, {"measurement": "viability, T/C", "setting": "[11]", "result": 92.7, "unit": "%"}, {"measurement": "viability, T/C", "setting": "[12]", "result": 84, "unit": "%"}, {"measurement": "viability, T/C", "setting": "[13]", "result": 101, "unit": "%"}, {"measurement": "viability, T/C", "setting": "[14]", "result": 96.4, "unit": "%"}, {"measurement": "viability, T/C", "setting": "[15]", "result": 93.5, "unit": "%"}, {"measurement": "viability, T/C", "setting": "[16]", "result": 95.5, "unit": "%"}, {"measurement": "viability, T/C", "setting": "[17]", "result": 91, "unit": "%"}, {"measurement": "viability, T/C", "setting": "[18]", "result": 81.2, "unit": "%"}, {"measurement": "viability, T/C", "setting": "[19]", "result": 102, "unit": "%"}, {"measurement": "viability, T/C", "setting": "[20]", "result": 91.5, "unit": "%"}, {"measurement": "viability, T/C", "setting": "[21]", "result": 87.2, "unit": "%"}, {"measurement": "viability, T/C", "setting": "[22]", "result": 85.4, "unit": "%"}, {"measurement": "viability, T/C", "setting": "[23]", "result": 92.4, "unit": "%"}, {"measurement": "viability, T/C", "setting": "[24]", "result": 78.3, "unit": "%"}, {"measurement": "viability, T/C", "setting": "[25]", "result": 93.3, "unit": "%"}, {"measurement": "viability, T/C", "setting": "[26]", "result": 88.2, "unit": "%"}, {"measurement": "viability, T/C", "setting": "[27]", "result": 90.3, "unit": "%"}, {"measurement": "viability, T/C", "setting": "[28]", "result": 84.2, "unit": "%"}, {"measurement": "viability, T/C", "setting": "[29]", "result": 89, "unit": "%"}, {"measurement": "viability, T/C", "setting": "[30]", "result": 82.5, "unit": "%"}, {"measurement": "viability, T/C", "setting": "[31]", "result": 102, "unit": "%"}, {"measurement": "viability, T/C", "setting": "[32]", "result": 94.8, "unit": "%"}, {"measurement": "viability, T/C", "setting": "[33]", "result": 84, "unit": "%"}, {"measurement": "viability, T/C", "setting": "[34]", "result": 87.7, "unit": "%"}, {"measurement": "viability, T/C", "setting": "[35]", "result": 88.2, "unit": "%"}, {"measurement": "viability, T/C", "setting": "[36]", "result": 88.9, "unit": "%"}]}
